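Assay format: 96-well plates, 48-hour exposure. TGI: concentration producing complete growth inhibition.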
How the values were obtained:
Experiment in all cases: NCI anticancer screen, dose series, 48 h
NCI/ADR-RES ovarian = system: NCI/ADR-RES ovarian
MDA-MB-231 breast = system: MDA-MB-231 breast
CCRF-CEM leukemia = system: CCRF-CEM leukemia
ACHN renal = system: ACHN renal
NCI-H226 lung = system: NCI-H226 lung
MALME-3M melanoma = system: MALME-3M melanoma
MCF7 breast = system: MCF7 breast
UACC-257 melanoma = system: UACC-257 melanoma
OVCAR-5 ovarian = system: OVCAR-5 ovarian
UO-31 renal = system: UO-31 renal
CAKI-1 renal = system: CAKI-1 renal
KM12 colon = system: KM12 colon
OVCAR-8 ovarian = system: OVCAR-8 ovarian
MDA-MB-435 = system: MDA-MB-435
MDA-N = system: MDA-N
IGROV1 ovarian = system: IGROV1 ovarian
NCI-H522 lung = system: NCI-H522 lung
UACC-62 melanoma = system: UACC-62 melanoma
COLO 205 colon = system: COLO 205 colon
NCI-H460 lung = system: NCI-H460 lung
HCT-116 colon = system: HCT-116 colon
RXF 393 renal = system: RXF 393 renal
SK-MEL-28 melanoma = system: SK-MEL-28 melanoma
K-562 leukemia = system: K-562 leukemia
786-0 renal = system: 786-0 renal
U251 CNS = system: U251 CNS
SK-OV-3 ovarian = system: SK-OV-3 ovarian
OVCAR-3 ovarian = system: OVCAR-3 ovarian
SNB-75 CNS = system: SNB-75 CNS
NCI-H23 lung = system: NCI-H23 lung
OVCAR-4 ovarian = system: OVCAR-4 ovarian
MOLT-4 leukemia = system: MOLT-4 leukemia
PC-3 prostate = system: PC-3 prostate
BT-549 breast = system: BT-549 breast
HS 578T breast = system: HS 578T breast
DU-145 prostate = system: DU-145 prostate
A549 NSCLC = system: A549 NSCLC
SNB-19 CNS = system: SNB-19 CNS
EKVX NSCLC = system: EKVX NSCLC
HOP-92 NSCLC = system: HOP-92 NSCLC
SW-620 colon = system: SW-620 colon
SF-295 CNS = system: SF-295 CNS
SN12C renal = system: SN12C renal
T-47D breast = system: T-47D breast
HOP-62 NSCLC = system: HOP-62 NSCLC
M14 melanoma = system: M14 melanoma
SF-268 CNS = system: SF-268 CNS
HT29 colon = system: HT29 colon
LOX IMVI melanoma = system: LOX IMVI melanoma
SK-MEL-5 melanoma = system: SK-MEL-5 melanoma
SK-MEL-2 melanoma = system: SK-MEL-2 melanoma
A498 renal = system: A498 renal
TK-10 renal = system: TK-10 renal
HCT-15 colon = system: HCT-15 colon
RPMI-8226 leukemia = system: RPMI-8226 leukemia
SF-539 CNS = system: SF-539 CNS
HCC-2998 colon = system: HCC-2998 colon

## CN(C)CCCn1c(Cc2ccccc2)nc2cc(C(F)(F)F)ccc21
NCI/ADR-RES ovarian
  TGI: > 100 µM
MDA-MB-231 breast
  TGI: 73.3 µM
CCRF-CEM leukemia
  TGI: 40.3 µM
ACHN renal
  TGI: > 100 µM
NCI-H226 lung
  TGI: > 100 µM
MALME-3M melanoma
  TGI: 35.5 µM
MCF7 breast
  TGI: 39.3 µM
UACC-257 melanoma
  TGI: 34.2 µM
OVCAR-5 ovarian
  TGI: > 100 µM
UO-31 renal
  TGI: 5.32 µM
CAKI-1 renal
  TGI: 51.1 µM
KM12 colon
  TGI: 31.3 µM
OVCAR-8 ovarian
  TGI: > 100 µM
MDA-MB-435
  TGI: 32.4 µM
MDA-N
  TGI: 33.1 µM
IGROV1 ovarian
  TGI: > 100 µM
NCI-H522 lung
  TGI: 48.3 µM
UACC-62 melanoma
  TGI: 34.4 µM
COLO 205 colon
  TGI: 34.7 µM
NCI-H460 lung
  TGI: 43.2 µM
HCT-116 colon
  TGI: 33.2 µM
RXF 393 renal
  TGI: 67.8 µM
SK-MEL-28 melanoma
  TGI: 37.6 µM
K-562 leukemia
  TGI: 47 µM
786-0 renal
  TGI: 33.9 µM
U251 CNS
  TGI: 38.8 µM
SK-OV-3 ovarian
  TGI: 63.2 µM
OVCAR-3 ovarian
  TGI: > 100 µM
SNB-75 CNS
  TGI: > 100 µM
NCI-H23 lung
  TGI: 83.2 µM
OVCAR-4 ovarian
  TGI: > 100 µM
MOLT-4 leukemia
  TGI: 48.3 µM
PC-3 prostate
  TGI: > 100 µM
BT-549 breast
  TGI: 92.4 µM
HS 578T breast
  TGI: > 100 µM
DU-145 prostate
  TGI: > 100 µM
A549 NSCLC
  TGI: 31.8 µM
SNB-19 CNS
  TGI: 86.9 µM
EKVX NSCLC
  TGI: 67.6 µM
HOP-92 NSCLC
  TGI: 92 µM
SW-620 colon
  TGI: 75.2 µM
SF-295 CNS
  TGI: 33.5 µM
SN12C renal
  TGI: > 100 µM
T-47D breast
  TGI: 50.7 µM
HOP-62 NSCLC
  TGI: > 100 µM
M14 melanoma
  TGI: 30.4 µM
SF-268 CNS
  TGI: > 100 µM
HT29 colon
  TGI: 42.4 µM
LOX IMVI melanoma
  TGI: 35.6 µM
SK-MEL-5 melanoma
  TGI: 33.2 µM
SK-MEL-2 melanoma
  TGI: 33 µM
A498 renal
  TGI: 34.6 µM
TK-10 renal
  TGI: 98.4 µM
HCT-15 colon
  TGI: 69.6 µM

## O=[N+]([O-])C(/C(Cl)=C(/Cl)N1CCOCC1)=C1\NCCO1
NCI/ADR-RES ovarian
  TGI: > 100 µM
MDA-MB-231 breast
  TGI: > 100 µM
CCRF-CEM leukemia
  TGI: > 100 µM
ACHN renal
  TGI: > 100 µM
NCI-H226 lung
  TGI: > 100 µM
MALME-3M melanoma
  TGI: > 100 µM
MCF7 breast
  TGI: > 100 µM
UACC-257 melanoma
  TGI: > 100 µM
OVCAR-5 ovarian
  TGI: > 100 µM
UO-31 renal
  TGI: > 100 µM
CAKI-1 renal
  TGI: > 100 µM
KM12 colon
  TGI: > 100 µM
OVCAR-8 ovarian
  TGI: > 100 µM
MDA-MB-435
  TGI: > 100 µM
MDA-N
  TGI: > 100 µM
RPMI-8226 leukemia
  TGI: > 100 µM
UACC-62 melanoma
  TGI: > 100 µM
COLO 205 colon
  TGI: > 100 µM
NCI-H460 lung
  TGI: > 100 µM
HCT-116 colon
  TGI: > 100 µM
SK-MEL-28 melanoma
  TGI: > 100 µM
786-0 renal
  TGI: > 100 µM
U251 CNS
  TGI: > 100 µM
SK-OV-3 ovarian
  TGI: > 100 µM
OVCAR-3 ovarian
  TGI: > 100 µM
SNB-75 CNS
  TGI: > 100 µM
NCI-H23 lung
  TGI: > 100 µM
SF-539 CNS
  TGI: > 100 µM
HCC-2998 colon
  TGI: > 100 µM
OVCAR-4 ovarian
  TGI: > 100 µM
MOLT-4 leukemia
  TGI: > 100 µM
PC-3 prostate
  TGI: > 100 µM
BT-549 breast
  TGI: > 100 µM
HS 578T breast
  TGI: > 100 µM
DU-145 prostate
  TGI: > 100 µM
A549 NSCLC
  TGI: > 100 µM
SNB-19 CNS
  TGI: > 100 µM
EKVX NSCLC
  TGI: > 100 µM
SW-620 colon
  TGI: > 100 µM
SF-295 CNS
  TGI: > 100 µM
SN12C renal
  TGI: > 100 µM
T-47D breast
  TGI: > 100 µM
HOP-62 NSCLC
  TGI: > 100 µM
M14 melanoma
  TGI: > 100 µM
SF-268 CNS
  TGI: > 100 µM
HT29 colon
  TGI: > 100 µM
SK-MEL-2 melanoma
  TGI: > 100 µM
A498 renal
  TGI: > 100 µM
HCT-15 colon
  TGI: > 100 µM
